Like-named read-outs stand apart in the source and are kept apart here.
How the values were obtained:
[1] = tested on: HCT-116 human colon carcinoma cells; assay: Cytotoxicity (in vitro) in HCT-116 human colon carcinoma cells, MTS assay; assay type: cell-based; conditions: read-out: IC50 (nM) HCT 116
Procedure: Cytoxicity was assessed in HCT-116 human colon carcinoma cells by MTS (3-(4,5-dimethylthiazol-2-yl)-5-(3-carboxymethoxyphenyl)-2-(4-sulphenyl)-2H-tetrazolium, inner salt) assay as reported in T. L. Riss, et. al., "Comparison of MTT, XTT, and a novel tetrazolium compound MTS for in vitro proliferation and chemosensitivity assays.," Mol. Biol. Cell 3 (Suppl.):184a, 1992. Cells were plated at 4,000 cell/well in 96 well microtiter plates and 24 hours later drugs were added and serial diluted. The cells were incubated at 37° form 72 hours at which time the tetrazolium dye, MTS at 333 μg/ml (final concentration), in combination with the electron coupling agent phenazine methosulfate at 25 μM (final concentration) was added. A dehydrogenase enzyme in live cells reduces the MTS to a form that absorbs light at […] which can be quantitated spectrophotometrically. The greater the absorbance the greater the number of live cells. The results are expressed as an IC50, which is the drug concentration required to inhibit cell proliferation (i.e. absorbance at 450 nm) to 50% of that of untreated control cells. The IC50 values for compounds evaluated in this assay are evaluated in Table I.

M109 lung carcinoma = assay: Mice M109 Model (In-Vivo), median survival time % T/C; parameters: species or system mice (Balb/c x DBA/2 F1 hybrid); conditions: Mus musculus, ip, days 1, 5 and 9 or days 5 and 8 post-implant, median survival T/C x 100
Procedure: Balb/c x DBA/2 F1 hybrid mice were implanted intraperitoneally, as described by William Rose in Evaluation of Madison 109 Lung Carcinoma as a Modelfor Screening Antitumor Drugs, Cancer Treatment Reports, 65, No. 3-4 (1981), with 0.5 mL of a 2% (w/v) brei of M109 lung carcinoma.
Mice were treated with compounds under study by receiving intraperitoneal injections of various doses on either days 1, 5 and 9 post-tumor implant or days 5 and 8 post-implant. Mice were followed daily for survival until approximately 75-90 days post-tumor implant. One group of mice per experiment remained untreated and served as the control group.
Median survival times of compound-treated (T) mice were compared to the median survival time of the control (C) mice. The ratio of the two values for each compound-treated group of mice was multiplied by 100 and expressed as a percentage (i.e. % T/C) in the following Table II for representative compounds.

[2] = in vivo animal models; cited from earlier work
[3] = HCT-116, 72 hours, MTS, inhibition of cell proliferation to 50% of untreated control

`CC(=O)O[C@H]1C(=O)[C@@]2(C)[C@H]([C@H](OC(=O)c3ccccc3)[C@]3(O)C[C@H](OC(=O)[C@H](O)[C@@H](NC(=O)c4ccccc4)c4ccccc4)C(C)=C1C3(C)C)[C@]1(OC(C)=O)CO[C@@H]1[C@@H](F)[C@@H]2O` [Ia, 6α-Fluoropaclitaxel] showed an IC50 ([1]; HCT-116, 72 h) of 1.4 nM.
For `COCO[C@H]1[C@H](F)[C@H]2OC[C@@]2(OC(C)=O)[C@H]2[C@H](OC(=O)c3ccccc3)[C@]3(O)C[C@H](OC(=O)[C@H](O)[C@@H](NC(=O)c4ccccc4)c4ccccc4)C(C)=C([C@@H](OC(C)=O)C(=O)[C@@]21C)C3(C)C` [Ib, 7-O-Methoxymethyl-6α-Fluoropaclitaxel], the IC50 ([1]; HCT-116, 72 h) was 1.3 nM and the response vs control in vivo at 100 mg/kg (M109 lung carcinoma) was 162%.
In the case of `CSCO[C@H]1[C@H](F)[C@H]2OC[C@@]2(OC(C)=O)[C@H]2[C@H](OC(=O)c3ccccc3)[C@]3(O)C[C@H](OC(=O)[C@H](O)[C@@H](NC(=O)OC(C)(C)C)c4ccccc4)C(C)=C([C@@H](OC(C)=O)C(=O)[C@@]21C)C3(C)C` [Im, 3'N-desbenzoyl-3'N-t-Butoxycarbonyl-7-O-methylthiomethyl-6α-Fluoropaclitaxel], the IC50 [1, 3] was 1 nM.
Work on `CSCO[C@H]1[C@H](F)[C@H]2OC[C@@]2(OC(C)=O)[C@H]2[C@H](OC(=O)c3ccccc3)[C@]3(O)C[C@H](OC(=O)[C@H](O)[C@@H](NC(=O)c4ccccc4)c4ccccc4)C(C)=C([C@@H](OC(C)=O)C(=O)[C@@]21C)C3(C)C` [Ic, 7-O-Meththiomethyl-6α-Fluoropaclitaxel] yielded an IC50 ([1]; HCT-116, 72 h) of 3.3 nM and a response vs control in vivo at 100 mg/kg (M109 lung carcinoma) of 147%.
`CC(=O)O[C@H]1C(=O)[C@@]2(C)[C@H]([C@H](OC(=O)c3ccccc3)[C@]3(O)C[C@H](OC(=O)[C@H](O)[C@@H](NC(=O)c4ccccc4)c4ccccc4)C(C)=C1C3(C)C)[C@]1(OC(C)=O)CO[C@@H]1[C@@H](Cl)[C@@H]2O` [Ij, 6-α-Chloropaclitaxel] gave an IC50 [1, 3] of 1.2 nM and a response vs control in vivo at 100 mg/kg (M109 lung carcinoma) of 203%.
Work on `CC(=O)O[C@H]1C(=O)[C@@]2(C)[C@H]([C@H](OC(=O)c3ccccc3)[C@]3(O)C[C@H](OC(=O)[C@H](O)[C@@H](NC(=O)c4ccccc4)c4ccccc4)C(C)=C1C3(C)C)[C@]1(OC(C)=O)CO[C@@H]1[C@@H](Br)[C@@H]2O` [Ie, 6α-Bromopaclitaxel] yielded an IC50 [1, 3] of 2.6 nM and a response vs control in vivo at 200 mg/kg (M109 lung carcinoma; dose 200 mg/kg) of 214%.
In the case of `CC(=O)O[C@H]1C(=O)[C@]2(C)C[C@@H](Br)[C@H]3OC[C@@]3(OC(C)=O)[C@H]2[C@H](OC(=O)c2ccccc2)[C@]2(O)C[C@H](OC(=O)[C@H](O)[C@@H](NC(=O)c3ccccc3)c3ccccc3)C(C)=C1C2(C)C` [Ip, 7-Deoxy-6-β-Bromopaclitaxel], the IC50 ([1]; HCT-116, 72 h) was 0.72 nM and the response vs control in vivo at 50 mg/kg (M109 lung carcinoma) was 172%.
Compound `COCO[C@H]1[C@H](O[N+](=O)[O-])[C@H]2OC[C@@]2(OC(C)=O)[C@H]2[C@H](OC(=O)c3ccccc3)[C@]3(O)C[C@H](OC(=O)[C@H](O)[C@@H](NC(=O)c4ccccc4)c4ccccc4)C(C)=C([C@@H](OC(C)=O)C(=O)[C@@]21C)C3(C)C` [Ii, 7-O-Methoxymethylpaclitaxel-6α-nitrate] has an IC50 ([1]; HCT-116, 72 h) of 4.95 nM and a response vs control in vivo at 195 mg/kg (M109 lung carcinoma) of 141%.
`CC(=O)O[C@H]1C(=O)[C@@]2(C)[C@H]([C@H](OC(=O)c3ccccc3)[C@]3(O)C[C@H](OC(=O)[C@H](O)[C@@H](NC(=O)OC(C)(C)C)c4ccccc4)C(C)=C1C3(C)C)[C@]1(OC(C)=O)CO[C@@H]1[C@@H](F)[C@@H]2O` [Ik, 3'N-desbenzoyl-3'N-t-Butoxycarbonyl-6α-Fluoropaclitaxel] showed an IC50 ([1]; HCT-116, 72 h) of 0.2 nM and a response vs control in vivo at 100 mg/kg (M109 lung carcinoma) of 269%.
With `CC(=O)O[C@H]1C(=O)[C@]2(C)C[C@@H](I)[C@H]3OC[C@@]3(OC(C)=O)[C@H]2[C@H](OC(=O)c2ccccc2)[C@]2(O)C[C@H](OC(=O)[C@H](O)[C@@H](NC(=O)c3ccccc3)c3ccccc3)C(C)=C1C2(C)C` [Iq, 7-Deoxy-6-β-Iodopaclitaxel] the IC50 ([1]; HCT-116, 72 h) was 2.24 nM and the response vs control in vivo at 50 mg/kg (M109 lung carcinoma) was 129%.
For `COCO[C@H]1[C@H](F)[C@H]2OC[C@@]2(OC(C)=O)[C@H]2[C@H](OC(=O)c3ccccc3)[C@]3(O)C[C@H](OC(=O)[C@H](O)[C@@H](NC(=O)OC(C)(C)C)c4ccccc4)C(C)=C([C@@H](OC(C)=O)C(=O)[C@@]21C)C3(C)C` [Il, 3'N-desbenzoyl-3'N-t-Butoxycarbonyl-7-O-methoxymethyl-6a-Fluoropaclitaxel], the IC50 ([1]; HCT-116, 72 h) was 2.5 nM and the response vs control in vivo at 50 mg/kg (M109 lung carcinoma) was 187%.
Work on `CO[C@H]1[C@H](F)[C@H]2OC[C@@]2(OC(C)=O)[C@H]2[C@H](OC(=O)c3ccccc3)[C@]3(O)C[C@H](OC(=O)[C@H](O)[C@@H](NC(=O)c4ccccc4)c4ccccc4)C(C)=C([C@@H](OC(C)=O)C(=O)[C@@]21C)C3(C)C` [Id, 7-O-Methyl-6α-Fluoropaclitaxel] yielded an IC50 ([1]; HCT-116, 72 h) of 0.83 nM and a response vs control in vivo at 100 mg/kg (M109 lung carcinoma) of 147%.
`CC(=O)O[C@H]1C(=O)[C@]2(C)C[C@@H](Cl)[C@H]3OC[C@@]3(OC(C)=O)[C@H]2[C@H](OC(=O)c2ccccc2)[C@]2(O)C[C@H](OC(=O)[C@H](O)[C@@H](NC(=O)c3ccccc3)c3ccccc3)C(C)=C1C2(C)C` [Io, 7-Deoxy-6-β-Chloropaclitaxel] showed an IC50 [1, 3] of 0.62 nM and a response vs control in vivo at 25 mg/kg (M109 lung carcinoma) of 166%.
In the case of `CC(=O)O[C@H]1C(=O)[C@@]2(C)[C@H]([C@H](OC(=O)c3ccccc3)[C@]3(O)C[C@H](OC(=O)[C@H](O)[C@@H](NC(=O)c4ccccc4)c4ccccc4)C(C)=C1C3(C)C)[C@]1(OC(C)=O)CO[C@@H]1C[C@@H]2O` [paclitaxel], the IC50 ([1]; HCT-116, 72 h) is listed as 1.53 to 2.73 nM and the antitumor activity [2] is listed as “excellent antitumor activity in in vivo animal models”.
`CSCO[C@H]1[C@H](O[N+](=O)[O-])[C@H]2OC[C@@]2(OC(C)=O)[C@H]2[C@H](OC(=O)c3ccccc3)[C@]3(O)C[C@H](OC(=O)[C@H](O)[C@@H](NC(=O)c4ccccc4)c4ccccc4)C(C)=C([C@@H](OC(C)=O)C(=O)[C@@]21C)C3(C)C` [Ih, 7-O-Methylthiomethylpaclitaxel-6α-nitrate] showed an IC50 ([1]; HCT-116, 72 h) of 7.35 nM and a response vs control in vivo at 195 mg/kg (M109 lung carcinoma) of 132%.
In the case of `CC(=O)O[C@H]1C(=O)[C@@]2(C)[C@H]([C@H](OC(=O)c3ccccc3)[C@]3(O)C[C@H](OC(=O)[C@H](O)[C@@H](NC(=O)c4ccccc4)c4ccccc4)C(C)=C1C3(C)C)[C@]1(OC(C)=O)CO[C@@H]1[C@@H](O[N+](=O)[O-])[C@@H]2O` [If, paclitaxel-6α-nitrate], the IC50 ([1]; HCT-116, 72 h) was 1.5 nM and the response vs control in vivo at 100 mg/kg (M109 lung carcinoma) was 132%.
`CO[C@H]1[C@H](F)[C@H]2OC[C@@]2(OC(C)=O)[C@H]2[C@H](OC(=O)c3ccccc3)[C@]3(O)C[C@H](OC(=O)[C@H](O)[C@@H](NC(=O)OC(C)(C)C)c4ccccc4)C(C)=C([C@@H](OC(C)=O)C(=O)[C@@]21C)C3(C)C` [In, 3'N-desbenzoyl-3'N-t-Butoxycarbonyl-7-O-methyl-6α-Fluoropaclitaxel] showed a response vs control in vivo at 25 mg/kg (M109 lung carcinoma) of 144%.
